According to US10336762B2 (priority 2017, dated 2019):

How the values were obtained:
TNFα = assay: cells; assay type: cell-based, human; details: Homo sapiens, Monocyte, LPS-stimulated human monocytes, TNFα content; read-out: EC50 TNF
IRAK4 enzyme = IRAK4 enzyme (Homo sapiens (Human), UniProt Q9NWZ3); assay: biochemical; assay type: biochemical; details: IRAK4 enzyme, TR-FRET, 500 μM ATP
IRAK4 enzyme, sequence (Q9NWZ3 whole entry): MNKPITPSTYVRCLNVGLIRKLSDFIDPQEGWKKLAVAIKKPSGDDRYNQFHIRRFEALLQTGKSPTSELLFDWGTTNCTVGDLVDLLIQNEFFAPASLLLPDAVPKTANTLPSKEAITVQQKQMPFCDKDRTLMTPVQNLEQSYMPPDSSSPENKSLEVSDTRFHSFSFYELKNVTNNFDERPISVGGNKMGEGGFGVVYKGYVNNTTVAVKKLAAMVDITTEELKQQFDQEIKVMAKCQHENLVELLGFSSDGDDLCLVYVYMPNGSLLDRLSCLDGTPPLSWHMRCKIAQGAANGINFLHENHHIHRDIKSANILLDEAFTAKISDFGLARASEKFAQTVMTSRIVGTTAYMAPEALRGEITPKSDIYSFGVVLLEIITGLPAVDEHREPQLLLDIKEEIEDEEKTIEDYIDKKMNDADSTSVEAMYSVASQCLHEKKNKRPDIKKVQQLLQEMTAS

Compound | EC50 (TNFα) [nM] | IC50 (IRAK4 enzyme) [nM]
CC(C)Nc1cc(-c2ccc3cc(C#N)cnn23)ncc1C(=O)NC1CC2(CC(O)C2)C1 (centres unmarked) [Example 149, 6-(3-cyanopyrrolo[1,2-b]pyridazin-7-yl)-N-(6-hydroxyspiro[3.3]heptan-2-yl)-4-(isopropylamino) nicotinamide] | 148 | 1
CC(C)(O)[C@H](F)CNC(=O)c1cnc(-c2ccc3cc(C#N)cnn23)cc1N[C@@H]1CCOC[C@H]1F [Example 150, 6-(3-cyanopyrrolo[1,2-b]pyridazin-7-yl)-N-((R)-2-fluoro-3-hydroxy-3-methylbutyl)-4-(((3S,4R)-3-fluorotetrahydro-2H-pyran-4-yl)amino)nicotinamide] | 51 | < 1
CC(C)(O)[C@H](F)CNC(=O)c1cnc(-c2ccc3cc(C#N)cnn23)cc1N[C@H]1CCOC[C@@H]1F [Example 151, 6-(3-cyanopyrrolo[1,2-b]pyridazin-7-yl)-N-((R)-2-fluoro-3-hydroxy-3-methylbutyl)-4-(((3R,4S)-3-fluorotetrahydro-2H-pyran-4-yl)amino) nicotinamide] | 96 | < 1
CC(C)Nc1cc(-c2ccc3cc(C#N)cnn23)ncc1C(=O)NC1CC2(CC(=O)C2)C1 [Example 152, 6-(3-cyanopyrrolo[1,2-b]pyridazin-7-yl)-4-(isopropylamino)-N-(6-oxospiro[3.3]heptan-2-yl)nicotinamide] | 191 | 2
CC(C)Nc1cc(-c2ccc3cc(C#N)cnn23)ncc1C(=O)NC1CC2(C1)CC(C)(O)C2 (centres unmarked) [Example 153, 6-(3-cyanopyrrolo[1,2-b]pyridazin-7-yl)-N-(6-hydroxy-6-methylspiro[3.3]heptan-2-yl)-4-(isopropylamino)nicotinamide] | 91 | < 1
CC1(O)CCC(Nc2cc(-c3ccc4cc(C#N)cnn34)ncc2C(=O)NC[C@@H](F)C(C)(C)O)CC1 (stereo partly drawn) [Example 154, 6-(3-cyanopyrrolo[1,2-b]pyridazin-7-yl)-N-((R)-2-fluoro-3-hydroxy-3-methylbutyl)-4-(((1s,4S)-4-hydroxy-4-methyl-cyclohexyl)amino)nicotinamide] | 34 | < 1
CN1CCC(Nc2cc(-c3ccc4cc(C#N)cnn34)ncc2C(=O)NC[C@@H](F)C(C)(C)O)CC1=O (stereo partly drawn) [Example 155, 6-(3-cyanopyrrolo[1,2-b]pyridazin-7-yl)-N-((R)-2-fluoro-3-hydroxy-3-methylbutyl)-4-((1-methyl-2-oxopiperidin-4-yl)amino) nicotinamide] | 150 | 1
CC(C)(O)[C@H](F)CNC(=O)c1cnc(-c2ccc3cc(C#N)cnn23)cc1NC1CCN(C(=O)c2ccoc2)CC1 [Example 156, (R)-6-(3-cyanopyrrolo[1,2-b]pyridazin-7-yl)-N-(2-fluoro-3-hydroxy-3-methylbutyl)-4-((1-(furan-3-carbonyl)piperidin-4-yl)amino)nicotinamide] | 179 | 4
CC(C)Nc1cc(-c2ccc3cc(C#N)cnn23)ncc1C(=O)NCc1ccc(=O)[nH]c1 [Example 157, 6-(3-cyanopyrrolo[1,2-b]pyridazin-7-yl)-4-(isopro-pylamino)-N-((6-oxo-1,6-dihydropyridin-3-yl)methyl) nicotinamide] | 501 | 23
COC1(C)CN(C(=O)C23CCC(Nc4cc(-c5ccc6cc(C#N)cnn56)ncc4C(=O)NC[C@@H](F)C(C)(C)O)(CC2)CC3)C1 [Example 158, (R)-6-(3-cyanopyrrolo[1,2-b]pyridazin 7-yl)-N-(2-fluoro-3-hydroxy-3-methylbutyl)-4-((4-(3-methoxy-3-methylazetidine-1-carbonyl)bicyclo[2.2.2]octan-1-yl)amino)nicotinamide] | 99 | 2
CC1(O)CN(C(=O)C23CCC(Nc4cc(-c5ccc6cc(C#N)cnn56)ncc4C(=O)NC[C@@H](F)C(C)(C)O)(CC2)CC3)C1 [Example 159, (R)-6-(3-cyanopyrrolo[1,2-b]pyridazin-7-yl)-N-(2-fluoro-3-hydroxy-3-methylbutyl)-4-((4-(3-hydroxy-3-methylazetidine-1-carbonyl)bicyclo[2.2.2]octan-1-yl)amino)nicotinamide] | 184 | 1
CC(C)(O)[C@H](F)CNC(=O)c1cnc(-c2ccc3cc(C#N)cnn23)cc1N[C@H]1C[C@H](OC(=O)NC2CC2)C1 [Example 160, (1R,3r)-3-((2-(3-cyano-pyrrolo[1,2-b]pyridazin-7-yl)-5-(((R)-2-fluoro-3-hydroxy-3-methylbutyl)carbamoyl)pyridin-4-yl)amino)cyclobutyl cyclopropylcarbamate] | > 10000 | 465
CN(C)C(=O)O[C@H]1C[C@H](Nc2cc(-c3ccc4cc(C#N)cnn34)ncc2C(=O)NC[C@@H](F)C(C)(C)O)C1 [Example 161, (1R,3r)-3-((2-(3-cyano-pyrrolo[1,2-b]pyridazin-7-yl)-5-(((R)-2-fluoro-3-hydroxy-3-methylbutyl)carbamoyl)pyridin-4-yl)amino)cyclobutyl dimethylcarbamate] | > 10000 | 1000
CNC(=O)O[C@H]1C[C@H](Nc2cc(-c3ccc4cc(C#N)cnn34)ncc2C(=O)NC[C@@H](F)C(C)(C)O)C1 [Example 162, (1R,3r)-3-((2-(3-cyano-pyrrolo[1,2-b]pyridazin-7-yl)-5-(((R)-2-fluoro-3-hydroxy-3-methylbutyl)carbamoyl)pyridin-4-yl)amino)cyclobutyl methylcarbamate] | > 10000 | 376
CC(C)(O)[C@H](F)CNC(=O)c1cnc(-c2ccc3cc(C#N)cnn23)cc1N[C@H]1CC[C@H](OC(=O)NC2CC2)CC1 [Example 163, (1R,4r)-4-((2-(3-cyano-pyrrolo[1,2-b]pyridazin-7-yl)-5-(((R)-2-fluoro-3-hydroxy-3-methylbutyl)carbamoyl)pyridin-4-yl)amino)cyclohexyl cyclopropylcarbamate] | > 10000 | 90
CN(C)C(=O)O[C@H]1CC[C@H](Nc2cc(-c3ccc4cc(C#N)cnn34)ncc2C(=O)NC[C@@H](F)C(C)(C)O)CC1 [Example 164, (1R,4r)-4-((2-(3-cyano-pyrrolo[1,2-b]pyridazin-7-yl)-5-(((R)-2-fluoro-3-hydroxy-3-methylbutyl)carbamoyl)pyridin-4-yl)amino)cyclohexyl dimethylcarbamate] | 9940 | 132
CNC(=O)O[C@H]1CC[C@H](Nc2cc(-c3ccc4cc(C#N)cnn34)ncc2C(=O)NC[C@@H](F)C(C)(C)O)CC1 [Example 165, (1R,4r)-4-((2-(3-cyano-pyrrolo[1,2-b]pyridazin-7-yl)-5-(((R)-2-fluoro-3-hydroxy-3-methylbutyl)carbamoyl)pyridin-4-yl)amino)cyclohexyl methylcarbamate] | > 10000 | 59
CC(C)(O)[C@H](F)CNC(=O)c1cnc(-c2ccc3cc(C#N)cnn23)cc1N[C@H]1CC[C@@H](OC(=O)NC2CC2)CC1 [Example 166, (1S,4s)-4-((2-(3-cyano-pyrrolo[1,2-b]pyridazin-7-yl)-5-(((R)-2-fluoro-3-hydroxy-3-methylbutyl)carbamoyl)pyridin-4-yl)amino)cyclohexyl cyclopropylcarbamate] | > 10000 | 741
CN(C)C(=O)O[C@H]1CC[C@@H](Nc2cc(-c3ccc4cc(C#N)cnn34)ncc2C(=O)NC[C@@H](F)C(C)(C)O)CC1 [Example 167, (1S,4s)-4-((2-(3-cyano-pyrrolo[1,2-b]pyridazin-7-yl)-5-(((R)-2-fluoro-3-hydroxy-3-methylbutyl)carbamoyl)pyridin-4-yl)amino)cyclohexyl dimethylcarbamate] | > 10000 | 1000
CNC(=O)O[C@H]1CC[C@@H](Nc2cc(-c3ccc4cc(C#N)cnn34)ncc2C(=O)NC[C@@H](F)C(C)(C)O)CC1 [Example 168, (1S,4s)-4-((2-(3-cyano-pyrrolo[1,2-b]pyridazin-7-yl)-5-(((R)-2-fluoro-3-hydroxy-3-methylbutyl)carbamoyl)pyridin-4-yl)amino)cyclohexyl methylcarbamate] | > 10000 | 1000
CC(C)(O)[C@H](F)CNC(=O)c1cnc(-c2ccc3cc(C#N)cnn23)cc1N[C@H]1C[C@H](O)C1 [Example 169, 6-(3-cyanopyrrolo[1,2-b]pyridazin-7-yl)-N-((R)-2-fluoro-3-hydroxy-3-methylbutyl)-4-(((1r,3R)-3-hydroxycyclobutyl)amino) nicotinamide] | > 10000 | 183
CC(C)(O)[C@H](F)CNC(=O)c1cnc(-c2ccc3cc(C#N)cnn23)cc1NCc1cccnc1 [Example 170, (R)-6-(3-cyanopyrrolo[1,2-b]pyridazin-7-yl)-N-(2-fluoro-3-hydroxy-3-methylbutyl)-4-((pyridin-3-ylmethyl)amino) nicotinamide] | 217 | 3
CC(C)(O)[C@H](F)CNC(=O)c1cnc(-c2ccc3cc(C#N)cnn23)cc1NCc1ccccn1 [Example 171, (R)-6-(3-cyanopyrrolo[1,2-b]pyridazin-7-yl)-N-(2-fluoro-3-hydroxy-3-methylbutyl)-4-((pyridin-2-ylmethyl)amino) nicotinamide] | 382 | 6
CC(C)(O)[C@H](F)CNC(=O)c1cnc(-c2ccc3cc(C#N)cnn23)cc1Nc1ccc(-c2cn[nH]c2)nc1 [Example 172, (R)-4-((6-(1H-pyrazol-4-yl)pyridin-3-yl)amino)-6-(3-cyanopyrrolo[1,2-b]pyridazin-7-yl)-N-(2-fluoro-3-hydroxy-3-methylbutyl) nicotinamide] | 76 | < 1
CC(C)(O)[C@H](F)CNC(=O)c1cnc(-c2ccc3cc(C#N)cnn23)cc1NC1CCC(C(=O)N2CCOCC2)CC1 (stereo partly drawn) [Example 173, 6-(3-cyanopyrrolo[1,2-b]pyridazin-7-yl)-N-((R)-2-fluoro-3-hydroxy-3-methylbutyl)-4-(((1r,4R)-4-(morpholine-4-carbonyl)cyclohexyl)amino) nicotinamide] | 148 | 2
